From patent US5775329A, “Method and compounds for diagnosing coronary artery disease” (Gensia, Inc., priority 1995, dated 1998) come the findings set out here.

Structures are written as SMILES. “Also recorded” adds a separate entry of the source. Counter-ions that a name gives are not always drawn.

For assay [1], the system named is heart rate (chronotropic response). The assay is described as follows: Pharmacodynamics in conscious dogs during i.v. administration (chronotropic response and offset). Format: in vivo, dog. How it is done:
[…] The T50 s were measured from end of infusion.
Pharmacodynamics in conscious dogs during i.v. administration
Dogs were trained to lie quietly on a table. Novel catecholamine compounds were administered via a venous catheter acutely placed in a leg vein. […] Heart rate was recorded by computer from ECG limb leads at 5 second intervals throughout the experiment. […]

The next assay relates to heart rate. In words: Pharmacodynamics in conscious dogs during transdermal iontophoretic administration. Type of assay: in vivo, dog. Particulars: 10 min. How it is done: Pharmacodynamics in conscious dogs during transdermal iontophoretic administration
Dogs were trained to lie quietly on a table. Heart rate was monitored by ECG limb leads. Novel catecholamines were administered from a gel-filled electrode placed on the surface of the skin. A second electrode was placed on the skin to complete the electrical circuit. All compounds were delivered using a current of 0.25 mA for a period of 10 minutes. Heart rate was monitored by the ECG, and the T50 of the compound was measured as the time after termination of current required for heart rate to return 50% toward baseline rate. A "delay" time was also measured as the time required for heart rate to begin to fall, following termination of current.

For another assay, the target named is α-adrenoreceptor. The assay is described as follows: In vitro bioassay for α-adrenergic activity (contraction of aortic rings). Type of assay: biochemical. Particulars: rabbit aortic rings, propranolol pretreated, 37° C., pH=7.4, read-out: α (aorta). How it is done: (§1) In Vitro Bioassays for β1 -, β2 - and α-Adrenoreceptor Activity
(§2) Functional evaluation of β1 -, β2 - and α-adrenoreceptor activity was performed using in vitro preparations of guinea pig atria, guinea pig trachea, and rabbit aorta, respectively (Young, et. al, Drug Dev. Res. 1994, 32, 19-28).
For evaluation of α-adrenergic activity, male New Zealand white rabbits (2.5 kg) (Simunek Rabbitry, Vista, Calif.) were sacrificed by carbon dioxide inhalation and the thoracic aorta was quickly excised and placed in Krebs Ringer solution. The aorta was cut into 3-mm rings which were subsequently suspended on hooks in organ baths. The 2.5-ml water-jacketed baths were maintained at 37° C. and filled with Krebs Ringer solution aerated with 95% O2 and 5% CO2. The vascular rings were equilibrated for 1 h following the application of a resting tension of 4 g, during which time the buffer was changed at 15-min intervals. All rings were pretreated with propranolol ([…]) 10 min prior to addition of test compounds. Concentration-response curves were obtained by cumulative addition of compound to the organ bath, the concentration being increased only after maximal response to the preceding concentration was attained. After the final response was attained for each test drug, norepinephrine ([…]) was added to assess maximal contraction. Responses are expressed as a percent of the maximal contraction by norepinephrine.
(§3) In all experiments, tension was measured by isometric force transducers (52-9529, Harvard Apparatus, Natick, Mass.) coupled to an ink-writing recorder (Gould, Cleveland Ohio). The Krebs Ringer solution contained the following ingredients (mM): NaCl (118.1), NaHCO3 (25.0), D-glucose (11.1), KH2 PO4 (1.2), KCl (4.8), MgSO4 (1.2), CaCl2 (2.5), pH=7.4.

The next assay addresses T1, β1-adrenoreceptor (Cavia porcellus, UniProt H0W3H1).
T1 construct: the hearts were excised and placed in ice-cold oxygenated Krebs Ringer buffer; tissue Charles River Laboratories (animals); host or cells: guinea pig atria (right and left, paired)
The assay is described as follows: In vitro bioassay for β1-adrenergic activity (atrial rate). Type of assay: biochemical. Particulars: guinea pig atria, 37° C., pH=7.4, approximately four atrial preparations per compound. How it is done:
as §1, §2
For the atrial assay of β1 -adrenergic activity, male Hartley guinea pigs (350-500 g; Charles River Laboratories, Wilmington, Mass.) were sacrificed by decapitation and the hearts were excised and placed in ice-cold oxygenated Krebs Ringer buffer. The atria were separated from the ventricles, leaving the right and left atria attached as a pair. A suture was placed at the apex of each atrial appendage for securing the tissue within the organ bath. The water-jacketed 25-ml organ baths were maintained at 37° C. and filled with Krebs Ringer solution aerated with 95% O2 and 5% CO2. The atrial pairs were equilibrated for at least 20 min after application of 1 g resting tension. β1 -adrenergic activity was assessed using atrial rate (beats per min) and amplitude of contraction (g tension) which were monitored at 1 and 5 min after dosing. Concentration-response curves (10^-11 -10^-4 M) were obtained by cumulative addition of drug to the bath. Following the completion of the dose response curves, isoproterenol was added to assess maximal response of each atrial preparation. EC50 values were calculated from the rate results of approximately four atrial preparations per compound.
as §3

A further assay deals with T2, β2-adrenoreceptor (Cavia porcellus, UniProt Q8K4Z4).
T2 construct: the trachea was gently excised and placed in ice-cold aerated Krebs Ringer solution; from tissue; host or cells: guinea pig tracheal rings
T2 sequence (Q8K4Z4 whole entry): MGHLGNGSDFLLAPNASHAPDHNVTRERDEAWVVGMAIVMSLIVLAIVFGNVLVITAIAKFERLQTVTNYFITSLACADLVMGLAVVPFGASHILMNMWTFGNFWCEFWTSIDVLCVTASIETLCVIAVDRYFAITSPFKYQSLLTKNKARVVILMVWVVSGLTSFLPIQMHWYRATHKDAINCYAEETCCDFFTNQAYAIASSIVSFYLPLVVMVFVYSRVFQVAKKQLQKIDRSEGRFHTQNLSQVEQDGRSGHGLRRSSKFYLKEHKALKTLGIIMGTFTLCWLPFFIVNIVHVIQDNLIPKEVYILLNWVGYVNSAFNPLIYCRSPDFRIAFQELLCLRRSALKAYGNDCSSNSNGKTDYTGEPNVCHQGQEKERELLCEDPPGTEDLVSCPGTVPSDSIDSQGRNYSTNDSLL
The assay is described as follows: In vitro bioassay for β2-adrenergic activity (relaxation of precontracted tracheal rings). Format: biochemical. Particulars: guinea pig tracheal rings precontracted with carbachol, 37° C., pH=7.4, read-out: β2 (trachea). On the procedure: as §1, §2
For the tracheal assay of β2 -adrenergic activity, male Hartley guinea pigs (350-500 g) were sacrificed by carbon dioxide inhalation and the trachea was gently excised and placed in ice-cold aerated Krebs Ringer solution. β2 -adrenergic activity was assessed as the relaxation of rings following precontraction with carbachol. The trachea were cut into transverse rings containing two cartilage segments, and sutures were tied onto the cartilage on either side of the band of smooth muscle of each ring. The sutures were used to mount the individual rings in a 2.5-ml organ bath and to measure tension with an isometric force transducer. The water-jacketed organ baths maintained the preparation at 37° C. and were filled with Krebs Ringer solution aerated with 95% O2 and 5% CO2. The tracheal rings were equilibrated for 1 h following the application of 0.5 g resting tension. In some cases, equilibrated rings were then treated with the α2 -antagonist rauwolscine ([…]) and the β1 -antagonist atenolol ([…]) prior to precontraction with carbachol ([…]). Precontracted rings used as controls received treatments of saline only. Concentration-response curves were obtained by cumulative addition of drug to the organ bath, the concentration being increased only after the maximal relaxation to the preceding concentration was attained. After the final response was attained, isoproterenol ([…]) was added to assess maximal response for each preparation.
as §3

Setting [2] is: Table I, i.v., measured from end of infusion at highest dose 100 ng/kg/min.
[3] abbreviates: Table I, stable increase over baseline at highest dose (100 ng/kg/min i.v.), ascending doses.
Where [4] appears, read: iontophoresis 0.25 mA, concentration (mM): isoproterenol 2.5, arbutamine 20, Ex 4 2, Ex 1 3, Ex 11 12, Ex 9 8, Ex 6 8.
[5] abbreviates: Example 13, i.v. stepwise ascending doses up to 100 ng/kg/min.
Where [6] appears, read: Example 13, i.v., from termination of infusion (100 ng/kg/min) to 50% fall in heart rate towards baseline.
[7] abbreviates: Example 13, i.v., dose reached 300 ng/kg/min.

T1 sequence (H0W3H1 1-470): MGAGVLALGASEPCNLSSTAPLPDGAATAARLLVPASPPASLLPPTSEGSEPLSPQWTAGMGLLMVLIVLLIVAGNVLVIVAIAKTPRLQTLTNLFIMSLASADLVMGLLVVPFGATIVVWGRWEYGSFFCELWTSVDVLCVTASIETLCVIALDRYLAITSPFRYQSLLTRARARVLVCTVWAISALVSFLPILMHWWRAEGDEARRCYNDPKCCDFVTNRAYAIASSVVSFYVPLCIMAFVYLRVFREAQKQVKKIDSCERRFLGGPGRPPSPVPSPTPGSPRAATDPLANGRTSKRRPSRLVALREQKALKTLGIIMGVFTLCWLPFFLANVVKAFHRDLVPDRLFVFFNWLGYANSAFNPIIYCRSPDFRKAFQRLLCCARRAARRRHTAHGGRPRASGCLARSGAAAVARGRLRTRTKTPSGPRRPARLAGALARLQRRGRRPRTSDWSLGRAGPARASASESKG

The compound `Oc1ccc(CCCCNC[C@H](O)c2ccc(O)c(O)c2)cc1` [Arbutamine, reference compound] registered a T50 in assay [1] (setting [2]) of 7.2 ± 1.1 min. Besides, the “Δ Heart Rate” value in assay [1] (setting [3]) was 84 ± 9 beats/min. Moreover, in the assay with heart rate (setting [4]), the “Delay (time required for heart rate to begin to fall following termination of current)” value (“Delay” below) is 2.3 ± 1.4 min, the “T50 (time after termination of current for heart rate to return 50% toward baseline)” value is 24.8 ± 2.7 min and the “Δ Heart Rate” value was 84 ± 5 beats/min.
With `CC(CCC[S+](C)[O-])NC[C@H](O)c1ccc(O)c(O)c1` (stereo partly drawn) [*, 1 (R)(3,4-dihyroxyphenyl)-2-(1-methyl-4-methylsulfinylbutylamino) ethano oxalate salt], the EC50 on α-adrenoreceptor was found to be 7830 ± 239 nM; at β1-adrenoreceptor it was 1.4 ± 0.3 nM.
As to `CSCCCNC[C@H](O)c1ccc(O)c(O)c1` [Example 11, 1-(R)-(3,4-dihydroxyphenyl)-2-(3-methylthiopropylamino)ethanol], the “Δ Heart Rate” value in assay [1] (setting [5]) is 109 ± 4; in assay [1] (setting [3]) it was 109 ± 4 beats/min; with heart rate (setting [4]), 89 ± 7 beats/min. Besides, the T50 in assay [1] (setting [6]) came to 3.6 ± 0.2 min; in assay [1] (setting [2]), 3.6 ± 0.3 min. Also, in assay [1] (i.v., compared with isoproterenol and arbutamine), the “offset time / T50 (in words)” value is “shorter than for both isoproterenol and arbutamine; also recorded: substantially shorter T50 than isoproterenol and arbutamine”. Also, the “T50 (time required for the chronotropic response to decrease by 50%)” value in assay [1] (oxalate salt, dog studies) is 3.6 min. The EC50 came out at 16 ± 1.2 nM at β2-adrenoreceptor, 88300 ± 5660 nM at α-adrenoreceptor and 9.7 ± 2 nM on β1-adrenoreceptor. The “Delay” value with heart rate (setting [4]) amounted to 0.8 ± 0.2 min. Moreover, the “T50 (time after termination of current for heart rate to return 50% toward baseline)” value in the assay on heart rate (setting [4]) was 12.7 ± 3.6 min.
For the compound `C[S+]([O-])CCCCNC[C@H](O)c1ccc(O)c(O)c1` (stereo partly drawn) [Example 7, 1-(R)-(3,4-dihydroxyphenyl)-2-(4-methylsulfinylbutylamino)ethanol], the figures for the EC50 at β2-adrenoreceptor, on α-adrenoreceptor and at β1-adrenoreceptor were 245 ± 84.7 nM, 5500 ± 456 nM and 13.3 ± 1 nM, respectively.
Turning to `CSCCCC(C)NC[C@H](O)c1ccc(O)c(O)c1` (stereo partly drawn) [Example 8, 1-(R)-(3,4-dihydroxyphenyl)-2-(1-methyl-4-methylthiobutylamino)ethanol], the EC50 at β2-adrenoreceptor came out at 4.6 ± 0.2 nM; at α-adrenoreceptor, 20900 ± 9850 nM; at β1-adrenoreceptor, 0.6 ± 0.3 nM.
Turning to `COCCCNC[C@H](O)c1ccc(O)c(O)c1` [Example 3, 1-(R)-(3,4-dihydroxyphenyl)-2-(3-methoxy-propylamino)ethanol], the EC50 on β2-adrenoreceptor was 21 ± 3 nM; at α-adrenoreceptor, 61300 ± 3820 nM; at β1-adrenoreceptor, 19 ± 5.4 nM.
For the compound `C[S+]([O-])CCCNC[C@H](O)c1ccc(O)c(O)c1` (stereo partly drawn) [Example 6, 1-(R)-(3,4-dihydroxyphenyl)-2-(3-methylsulfinylpropylamino)ethanol], the “Δ Heart Rate” value in assay [1] (setting [5]) worked out at 93 ± 3; in the assay with heart rate (setting [4]), 93 ± 6 beats/min. In assay [1] (setting [6]), this compound gave a T50 of 5.4 ± 1.3 min. The EC50 is 140 ± 35.3 nM at β2-adrenoreceptor, over 10000 nM at α-adrenoreceptor and 14.9 ± 3.6 nM at β1-adrenoreceptor. Besides, the “Delay” value with heart rate (setting [4]) stood at 0.9 ± 0.5 min. Further, the “T50 (time after termination of current for heart rate to return 50% toward baseline)” value in the assay on heart rate (setting [4]) was 13.6 ± 2.3 min.
`CSCCCCNC[C@H](O)c1ccc(O)c(O)c1` [Example 9, 1-(R)-(3,4-dihydroxyphenyl)-2-(4-methylthiobutylamino)ethanol] had a T50 in assay [1] (setting [7]) of 3.6 ± 0.34 min. The “Δ Heart Rate” value in assay [1] (setting [7]) came to 93 ± 6; in the assay with heart rate (setting [4]), 82 ± 9 beats/min. Further, the EC50 on β2-adrenoreceptor was 20 ± 3.4 nM; on α-adrenoreceptor it was 1400 ± 82 nM; at β1-adrenoreceptor, 2.9 ± 0.6 nM. The “Delay” value in the assay with heart rate (setting [4]) is recorded as 0.6 ± 0.6 min. Moreover, the “T50 (time after termination of current for heart rate to return 50% toward baseline)” value with heart rate (setting [4]) was found to be 9.3 ± 0.5 min.
With `CCSCCCNC[C@H](O)c1ccc(O)c(O)c1` [Example 10, 1-(R)-(3,4-dihydroxyphenyl)-2-(3-ethylthiopropylamino)ethanol], the EC50 at β2-adrenoreceptor was 124 ± 13.6 nM; at α-adrenoreceptor, over 10000 nM; at β1-adrenoreceptor it was 4.8 ± 0.7 nM.
With `N#CCCCNC[C@H](O)c1ccc(O)c(O)c1` [Example 1, 1-(R)-(3,4-dihydroxyphenyl)-2-(3-cyanopropylamino)ethanol], the “Δ Heart Rate” value turned out to be 109 ± 5 in assay [1] (setting [5]) and 77 ± 1.3 beats/min in the assay on heart rate. In addition, in assay [1] (setting [6]), the T50 turned out to be 6.9 ± 0.6 min. Moreover, the figures for the EC50 at β2-adrenoreceptor, at α-adrenoreceptor and on β1-adrenoreceptor were 4.7 ± 1.2 nM, 7500 ± 2840 nM and 4.6 ± 0.7 nM, respectively. For the same compound, the “Delay” value in the assay with heart rate (setting [4]) amounted to 1.9 ± 0.5 min. Further, the “T50 (time after termination of current for heart rate to return 50% toward baseline)” value in the assay on heart rate (setting [4]) is given as 12.4 ± 1.3 min.
In assay [1] (setting [2]), `CC(C)NCC(O)c1ccc(O)c(O)c1` (stereo not drawn) [Isoproterenol, reference compound] had a T50 of 5.5 ± 1.0 min. In assay [1] (setting [3]), the “Δ Heart Rate” value was 103 ± 12 beats/min. In the assay with heart rate (setting [4]), the “Delay” value is 1.2 ± 0.5 min, the “T50 (time after termination of current for heart rate to return 50% toward baseline)” value came out at 12.2 ± 1.9 min and the “Δ Heart Rate” value was found to be 80 ± 11 beats/min.
In the case of `COCCCC(C)NC[C@H](O)c1ccc(O)c(O)c1` (stereo partly drawn) [Example 5, 1-(R)-(3,4-dihydroxyphenyl)-2-(1-methyl-4-methoxybutylamino)ethanol], the EC50 is 8.2 ± 1.6 nM on β2-adrenoreceptor, 51800 ± 19200 nM on α-adrenoreceptor and 1.5 ± 0.4 nM at β1-adrenoreceptor.
On to `CC(CCCC#N)NC[C@H](O)c1ccc(O)c(O)c1` (stereo partly drawn) [Example 2, 1-(R)-(3,4-dihydroxyphenyl)-2-(1-methyl-4-cyanobutylamino)ethanol], for which the figures for the EC50 on β2-adrenoreceptor, on α-adrenoreceptor and on β1-adrenoreceptor were 2.7 ± 0.5 nM, 15600 ± 8220 nM and 3.4 ± 0.4 nM, respectively.
